# Reference: patent publication US20050245399A1, “Pyrazole derivatives as herbicidal compositions containing them” (ISHIHARA SANGYO KAISHA, LTD., priority 2004, published 2005)
# System: barnyardgrass (Echinochloa crus-galli L.), ECHCG
# Test: Test Example 2 post-emergence (foliage treatment) herbicidal activity, ECHCG
# Format: in vivo
# Conditions: 63 g a.i./ha
# From the text: (§1) Upland field soil was put into a 1/170,000 ha pot, and seeds of various plants were sown. Then, when the plants reached predetermined leaf stages {1. barnyardgrass (Echinochloa crus-galli L.), ECHCG: 1.1-2.1 leaf stage, 2. crabgrass (Digitaria sanguinalis L.), DIGSA: 1.0-2.0 leaf stage, 3. green foxtail (Setaria viridis L.), SETVI: 1.0-2.2 leaf stage, 4. redroot pigweed (Amaranthus retroflexus L.), AMARE: 0.1-1.5 leaf stage, 5. prickly sida (Sida spinosa L.), SIDSP: 0.1-0.6 leaf stage, 6. velvetleaf (Abutilon theophrasti), ABUTH: 0.1-0.6 leaf stage, 7. common cocklebur (Xanthium strumarium L.), XANST: 0.1 leaf stage, 8. rice (Oryza sativa L.), ORYSA; 1.0-2 leaf stage, 9. wheat (Triticum aestivum L.), TRZAX: 2.3-3.5 leaf stage, 10. corn (Zea mays L.), ZEAMXN 2.1-2.6 leaf stage, 11. soybean (Glycine max Merr.), GLXMA: primary leaf stage}, a wettable powder or emulsifiable concentrate having the compound of the present invention formulated in accordance with a usual formulation method, was weighed so that the active ingredient would be a predetermined amount, and diluted with water in an amount of 500 L/ha. To the diluted solution, 0.1% (v/v) of an agricultural spreader was added. The herbicide adjusted was applied by a small size sprayer for foliage treatment. On the 20th to 23rd day after the application of the herbicide, the growth of the respective plants was visually observed, and the herbicidal effects were evaluated by growth controlling degrees (%) ranging from 0 (equivalent to the untreated control) to 100 (complete kill), whereby the results shown in Table 5, were obtained. Compound Nos. in Table 5 correspond to Compound Nos. in Table 1 and 2 given hereinbefore.
row,Structure (SMILES),"growth controlling degree, ECHCO [%]"
1,COc1c(Cl)cc(F)c(-c2nn(C)c(OC(F)F)c2Cl)c1N(C=O)CCOc1ccccc1 [Compound 1-43],40

# System: barnyardgrass (Echinochloa crus-galli L.): ECHCG
# Test: Test Example 1 pre-emergence herbicidal activity, ECHCG
# Format: in vivo
# Conditions: Rate 125 g a.i./ha, visually observed 20th to 23rd day after application
# From the text: (§2) Upland field soil was put into a 1/170,000 ha pot, and seeds of various plants {1. barnyardgrass (Echinochloa crus-galli L.): ECHCG, 2. crabgrass (Digitaria sanguinalis L.): DIGSA, 3. green foxtail (Setaria viridis L.): SETVI, 4. redroot pigweed (Amaranthus retroflexus L.): AMARE, 5. prickly sida (Sida spinosa L.): SEDSP, 6. velvetleaf (Abutilon theophrasti): ABUTH, 7. common cocklebur (Xanthium strumarium L.): XANST, 8. rice (Oryza sativa L.): ORYSA, 9. wheat (Triticum aestivum L.): TRZAX, 10. corn (Zea mays L.): ZEAMX, 11. soybean (Glycine max Merr.): GLXMA} were sown. Then, one day after the sowing, a wettable powder or emulsifiable concentrate having the compound of the present invention formulated in accordance with a usual formulation method, was weighed so that the active ingredient would be a predetermined amount and diluted with water in an amount of 500 L/ha. The herbicide adjusted was applied by a small size sprayer for preemergence treatment. On the 20th to 23rd day after the application of the herbicide, the growth of the respective plants was visually observed, and the herbicidal effects were evaluated by growth controlling degrees (%) ranging from 0 (equivalent to the untreated control) to 100 (complete kill), whereby the results shown in Table 4, were obtained. Compound Nos. in Table 4 correspond to Compound Nos. in Table 1 and 2 given hereinbefore.
row,Structure (SMILES),Pre-emergence Herbicidal Activity ECHCG (growth controlling degree) [%]
1,COc1c(Cl)cc(F)c(-c2nn(C)c(OC(F)F)c2Cl)c1N(C=O)CCOc1ccccc1 [Compound 1-43],0

# System: redroot pigweed (Amaranthus retroflexus L.), AMARE
# Test: Test Example 2 post-emergence (foliage treatment) herbicidal activity, AMARE
# Format: in vivo
# Conditions: 63 g a.i./ha
# From the text: as §1
row,Structure (SMILES),"growth controlling degree, AMARE [%]"
1,COc1c(Cl)cc(F)c(-c2nn(C)c(OC(F)F)c2Cl)c1N(C=O)CCOc1ccccc1 [Compound 1-43],100

# System: green foxtail (Setaria viridis L.), SETVI
# Test: Test Example 2 post-emergence (foliage treatment) herbicidal activity, SETVI
# Format: in vivo
# Conditions: 63 g a.i./ha
# From the text: as §1
row,Structure (SMILES),"growth controlling degree, SETVI [%]"
1,COc1c(Cl)cc(F)c(-c2nn(C)c(OC(F)F)c2Cl)c1N(C=O)CCOc1ccccc1 [Compound 1-43],70

# System: rice (Oryza sativa L.), ORYSA
# Test: Test Example 2 post-emergence (foliage treatment) herbicidal activity, ORYSA
# Format: in vivo
# Conditions: 63 g a.i./ha
# From the text: as §1
row,Structure (SMILES),"growth controlling degree, ORYSA [%]"
1,COc1c(Cl)cc(F)c(-c2nn(C)c(OC(F)F)c2Cl)c1N(C=O)CCOc1ccccc1 [Compound 1-43],30

# System: green foxtail (Setaria viridis L.): SETVI
# Test: Test Example 1 pre-emergence herbicidal activity, SETVI
# Format: in vivo
# Conditions: Rate 125 g a.i./ha, visually observed 20th to 23rd day after application
# From the text: as §2
row,Structure (SMILES),Pre-emergence Herbicidal Activity SETVI (growth controlling degree) [%]
1,COc1c(Cl)cc(F)c(-c2nn(C)c(OC(F)F)c2Cl)c1N(C=O)CCOc1ccccc1 [Compound 1-43],0

# System: prickly sida (Sida spinosa L.): SEDSP
# Test: Test Example 1 pre-emergence herbicidal activity, SIDSP
# Format: in vivo
# Conditions: Rate 125 g a.i./ha, visually observed 20th to 23rd day after application
# From the text: as §2
row,Structure (SMILES),Pre-emergence Herbicidal Activity SIDSP (growth controlling degree) [%]
1,COc1c(Cl)cc(F)c(-c2nn(C)c(OC(F)F)c2Cl)c1N(C=O)CCOc1ccccc1 [Compound 1-43],0

# System: corn (Zea mays L.), ZEAMX
# Test: Test Example 2 post-emergence (foliage treatment) herbicidal activity, ZEAMX
# Format: in vivo
# Conditions: 63 g a.i./ha
# From the text: as §1
row,Structure (SMILES),"growth controlling degree, ZEAMX [%]"
1,COc1c(Cl)cc(F)c(-c2nn(C)c(OC(F)F)c2Cl)c1N(C=O)CCOc1ccccc1 [Compound 1-43],10

# System: wheat (Triticum aestivum L.): TRZAX
# Test: Test Example 1 pre-emergence herbicidal activity, TRZAX
# Format: in vivo
# Conditions: Rate 125 g a.i./ha, visually observed 20th to 23rd day after application
# From the text: as §2
row,Structure (SMILES),Pre-emergence Herbicidal Activity TRZAX (growth controlling degree) [%]
1,COc1c(Cl)cc(F)c(-c2nn(C)c(OC(F)F)c2Cl)c1N(C=O)CCOc1ccccc1 [Compound 1-43],0

# System: rice (Oryza sativa L.): ORYSA
# Test: Test Example 1 pre-emergence herbicidal activity, ORYSA
# Format: in vivo
# Conditions: Rate 125 g a.i./ha, visually observed 20th to 23rd day after application
# From the text: as §2
row,Structure (SMILES),Pre-emergence Herbicidal Activity ORYSA (growth controlling degree) [%]
1,COc1c(Cl)cc(F)c(-c2nn(C)c(OC(F)F)c2Cl)c1N(C=O)CCOc1ccccc1 [Compound 1-43],10

# System: velvetleaf (Abutilon theophrasti), ABUTH
# Test: Test Example 2 post-emergence (foliage treatment) herbicidal activity, ABUTH
# Format: in vivo
# Conditions: 63 g a.i./ha
# From the text: as §1
row,Structure (SMILES),"growth controlling degree, ABUTH [%]"
1,COc1c(Cl)cc(F)c(-c2nn(C)c(OC(F)F)c2Cl)c1N(C=O)CCOc1ccccc1 [Compound 1-43],100

# System: wheat (Triticum aestivum L.), TRZAX
# Test: Test Example 2 post-emergence (foliage treatment) herbicidal activity, TRZAX
# Format: in vivo
# Conditions: 63 g a.i./ha
# From the text: as §1
row,Structure (SMILES),"growth controlling degree, TRZAX [%]"
1,COc1c(Cl)cc(F)c(-c2nn(C)c(OC(F)F)c2Cl)c1N(C=O)CCOc1ccccc1 [Compound 1-43],10

# System: soybean (Glycine max Merr.): GLXMA
# Test: Test Example 1 pre-emergence herbicidal activity, GLXMA
# Format: in vivo
# Conditions: Rate 125 g a.i./ha, visually observed 20th to 23rd day after application
# From the text: as §2
row,Structure (SMILES),Pre-emergence Herbicidal Activity GLXMA (growth controlling degree) [%]
1,COc1c(Cl)cc(F)c(-c2nn(C)c(OC(F)F)c2Cl)c1N(C=O)CCOc1ccccc1 [Compound 1-43],0

# System: crabgrass (Digitaria sanguinalis L.): DIGSA
# Test: Test Example 1 pre-emergence herbicidal activity, DIGSA
# Format: in vivo
# Conditions: Rate 125 g a.i./ha, visually observed 20th to 23rd day after application
# From the text: as §2
row,Structure (SMILES),Pre-emergence Herbicidal Activity DIGSP (growth controlling degree) [%]
1,COc1c(Cl)cc(F)c(-c2nn(C)c(OC(F)F)c2Cl)c1N(C=O)CCOc1ccccc1 [Compound 1-43],10

# System: velvetleaf (Abutilon theophrasti): ABUTH
# Test: Test Example 1 pre-emergence herbicidal activity, ABUTH
# Format: in vivo
# Conditions: Rate 125 g a.i./ha, visually observed 20th to 23rd day after application
# From the text: as §2
row,Structure (SMILES),Pre-emergence Herbicidal Activity ABUTH (growth controlling degree) [%]
1,COc1c(Cl)cc(F)c(-c2nn(C)c(OC(F)F)c2Cl)c1N(C=O)CCOc1ccccc1 [Compound 1-43],0

# System: corn (Zea mays L.): ZEAMX
# Test: Test Example 1 pre-emergence herbicidal activity, ZEAMX
# Format: in vivo
# Conditions: Rate 125 g a.i./ha, visually observed 20th to 23rd day after application
# From the text: as §2
row,Structure (SMILES),Pre-emergence Herbicidal Activity ZEAMX (growth controlling degree) [%]
1,COc1c(Cl)cc(F)c(-c2nn(C)c(OC(F)F)c2Cl)c1N(C=O)CCOc1ccccc1 [Compound 1-43],0

# System: soybean (Glycine max Merr.), GLXMA
# Test: Test Example 2 post-emergence (foliage treatment) herbicidal activity, GLXMA
# Format: in vivo
# Conditions: 63 g a.i./ha
# From the text: as §1
row,Structure (SMILES),"growth controlling degree, GLXMA [%]"
1,COc1c(Cl)cc(F)c(-c2nn(C)c(OC(F)F)c2Cl)c1N(C=O)CCOc1ccccc1 [Compound 1-43],40

# System: crabgrass (Digitaria sanguinalis L.), DIGSA
# Test: Test Example 2 post-emergence (foliage treatment) herbicidal activity, DIGSA
# Format: in vivo
# Conditions: 63 g a.i./ha
# From the text: as §1
row,Structure (SMILES),"growth controlling degree, DIGSP [%]"
1,COc1c(Cl)cc(F)c(-c2nn(C)c(OC(F)F)c2Cl)c1N(C=O)CCOc1ccccc1 [Compound 1-43],20
